Results: patent US20240316136A1, “ANESTHETIC METHOD OF SPOTTED SEABASS WITH PLANT ESSENTIAL OILS” (Shanghai Ocean University, priority 2024, published 2024)

Assays:
Format in all cases: in vivo, Lateolabrax maculatus
spotted seabass [1] = experiment: Sedation, anesthesia induction and resuscitation time of spotted seabass in anesthetic bath; set-up: key to Stage IV (deep anesthesia) time / Resuscitation time / Stage I (light sedation) time / Stage II (deep sedation) time / Stage III (light anesthesia) time: —: No anesthetic effect
Procedure: • 1. Healthy spotted seabass with uniform sizes and uniform respiration rates were selected and acclimated for 24 h. During the acclimatization period, the water temperature was 22±1° C., the salinity was 16%, the dissolved oxygen was 6 mg/L, pH was 7.5, and the fish-water ratio was 1:50. The metabolic wastes of the spotted seabass were discharged during acclimatization period. • 2. The emulsified Cinnamomum camphora essential oils were added to the aquariums respectively. The water temperature was controlled at 22±1° C. […] The spotted seabass were transferred to aquariums (5 fish per aquarium) with different concentrations of the Cinnamomum camphora essential oil, MS-222 and linalool anesthetics, and anesthetic concentrations, sedation concentrations and duration of anesthesia were recorded for the spotted seabass. • 4. The fish were extracted once deep anesthesia was achieved. Recovery was defined as the restoration of fish to their typical swimming behavior; the resuscitation time of the spotted seabass were recorded. • 5. The optimal concentration range was obtained, and oxidative stress and tissue injury were measured. [table] One-way analysis of variance (ANOVA) was used to evaluate the data (anesthetic induction and recovery time) using SPSS 26.0 software (SPSS Inc., Chicago, IL, USA). The significant variation was determined using Duncan's multiple range test (P<0.05). Graphs were created using Origin software.

spotted seabass [2] = experiment: Energy metabolism indexes (glucose, lactic acid); conditions: P<0.05
Procedure: (§1) In accordance with the principles and guiding regulations established by the Animal Protection and Utilization Committee of Shanghai Ocean University (SHOU-DW-2022-059), 200 mg/L MS-222 was used to anesthetize fish. Venous-arterial blood samples were obtained from the caudal vein using a 1 mL syringe with 10% EDTA as an anticoagulant and then preserved in anticoagulation tubes. In addition, another portion of the blood was collected without anticoagulant, then kept at 4° C. for a duration of 12 hours for stationary. The coagulated blood was centrifuged at 4000×g for 20 min at 4° C. The serum was extracted and placed in the refrigerator at −40° C. for testing.
(§2) Acid phosphatase (ACP), glucose (GLU) and lactic acid (LD) kits (Nanjing Jiancheng Bioengineering Institute, Nanjing, China) were used to measure ACP, GLU and LD levels.

spotted seabass [3] = experiment: Blood biochemical analysis (RBC, HCT, HGB); conditions: after deep anesthesia; comparison between anesthetic groups, p<0.05
Procedure: as §1
Red blood cell count (RBC), haematocrit (HCT), and hemoglobin (HGB) in blood samples were measured in a Myriad Veterinary Automatic Blood Cell Analyser (BC-2800vet, Shenzhen, China).

spotted seabass [4] = experiment: Immunological indicators (ACP/AKP, IgM, LZM) in serum
Procedure: as §1, §2
Lysozyme (LZM) activity was determined by the method of De Souza et al. Serum immunoglobulin M (IgM) concentration was measured using a fish ELISA kit (Nanjing Jiancheng Bioengineering Institute, Nanjing, China).

spotted seabass [5] = experiment: Oxidative stress indicators (SOD, CAT, GSH-Px) in blood
Procedure: as §1
Superoxide Dismutase (SOD), Catalase (CAT) and Glutathione Peroxidase (GSH-Px) kits (Nanjing Jiancheng Bioengineering Institute, Nanjing, China) were used to determine SOD, CAT and GSH-Px activities in blood.

[6] = test system: spotted seabass gill tissue; experiment: Gill tissue histopathology by light microscope after anesthesia
Procedure: • 1. Healthy spotted seabass with uniform sizes and uniform respiration rates were selected and acclimated for 24 h. During the acclimatization period, the water temperature was 22±1° C., the salinity was 16%, the dissolved oxygen was 6 mg/L, pH was 7.5, and the fish-water ratio was 1:50. The metabolic wastes of the spotted seabass were discharged during acclimatization period. • 2. The emulsified Cinnamomum camphora essential oils were added to the aquariums respectively. The water temperature was controlled at 22±1° C. The concentrations of the emulsified Cinnamomum camphora essential oil were 10, 20, 30, 50, 100, 150, 200 mg/L, respectively, and the same concentrations of MS-222 anesthesia solution and linalool solution were prepared at the same time. • 3. The spotted seabass were transferred to aquariums (5 fish per aquarium) with different concentrations of the Cinnamomum camphora essential oil, MS-222 and linalool anesthetics, and anesthetic concentrations, sedation concentrations and duration of anesthesia were recorded for the spotted seabass. • 4. The fish were extracted once deep anesthesia was achieved. Recovery was defined as the restoration of fish to their typical swimming behavior; the resuscitation time of the spotted seabass were recorded. • 5. The optimal concentration range was obtained, and oxidative stress and tissue injury were measured. […]

[7] = 100 mg/L in water, listed as linalool
[8] = after 24 h of recovery, vs MS-222 and Cinnamomum camphora essential oil
[9] = after 24 h of recovery, vs initial

**Q.** For `C=CC(C)(O)CCC=C(C)C` (centres unmarked) [Linalool, 1,6-Octadien-3-ol,3,7-dimethyl], which Resuscitation time (spotted seabass [1]; 5 mg/L in water) is on record?
**A.** —

**Q.** And the “Stage I (light sedation) time” value (spotted seabass [1]; 5 mg/L in water)?
**A.** —

**Q.** And the “Stage II (deep sedation) time” value (spotted seabass [1]; 5 mg/L in water)?
**A.** —

**Q.** What about the “Stage III (light anesthesia) time” value (spotted seabass [1]; 5 mg/L in water) of the same compound?
**A.** —

**Q.** And the “Stage IV (deep anesthesia) time” value (spotted seabass [1]; 5 mg/L in water)?
**A.** —

**Q.** What about the Resuscitation time (spotted seabass [1]; 10 mg/L in water) of the same compound?
**A.** —

**Q.** And the “Stage I (light sedation) time” value (spotted seabass [1]; 10 mg/L in water)?
**A.** 88.67 ± 3.21 s

**Q.** What about the “Stage II (deep sedation) time” value (spotted seabass [1]; 10 mg/L in water) of the same compound?
**A.** —

**Q.** And the “Stage III (light anesthesia) time” value (spotted seabass [1]; 10 mg/L in water)?
**A.** —

**Q.** And the “Stage IV (deep anesthesia) time” value (spotted seabass [1]; 10 mg/L in water)?
**A.** —

**Q.** And the Resuscitation time (spotted seabass [1]; 20 mg/L in water)?
**A.** —

**Q.** What about the “Stage I (light sedation) time” value (spotted seabass [1]; 20 mg/L in water) of the same compound?
**A.** 70.00 ± 3.00 s

**Q.** And the “Stage II (deep sedation) time” value (spotted seabass [1]; 20 mg/L in water)?
**A.** 97.00 ± 4.58 s

**Q.** What about the “Stage III (light anesthesia) time” value (spotted seabass [1]; 20 mg/L in water) of the same compound?
**A.** —

**Q.** And the “Stage IV (deep anesthesia) time” value (spotted seabass [1]; 20 mg/L in water)?
**A.** —

**Q.** And the Resuscitation time (spotted seabass [1]; 30 mg/L in water)?
**A.** —

**Q.** And the “Stage I (light sedation) time” value (spotted seabass [1]; 30 mg/L in water)?
**A.** 60.00 ± 3.00 s

**Q.** What about the “Stage II (deep sedation) time” value (spotted seabass [1]; 30 mg/L in water) of the same compound?
**A.** 84.67 ± 3.51 s

**Q.** And the “Stage III (light anesthesia) time” value (spotted seabass [1]; 30 mg/L in water)?
**A.** 103.33 ± 3.51 s

**Q.** And the “Stage IV (deep anesthesia) time” value (spotted seabass [1]; 30 mg/L in water)?
**A.** —

**Q.** And the Resuscitation time (spotted seabass [1]; 50 mg/L in water)?
**A.** 235.00 ± 2.00 s

**Q.** And the “Stage I (light sedation) time” value (spotted seabass [1]; 50 mg/L in water)?
**A.** 42.67 ± 3.51 s

**Q.** And the “Stage III (light anesthesia) time” value (spotted seabass [1]; 50 mg/L in water)?
**A.** 115.00 ± 4.00 s

**Q.** And the “Stage IV (deep anesthesia) time” value (spotted seabass [1]; 50 mg/L in water)?
**A.** 323.33 ± 2.52 s

**Q.** And the Resuscitation time (spotted seabass [1]; 100 mg/L in water)?
**A.** 255.33 ± 2.08 s

**Q.** What about the “Stage I (light sedation) time” value (spotted seabass [1]; 100 mg/L in water) of the same compound?
**A.** 31.67 ± 1.15 s

**Q.** What about the “Stage III (light anesthesia) time” value (spotted seabass [1]; 100 mg/L in water) of the same compound?
**A.** 103.67 ± 2.52 s

**Q.** What about the “Stage IV (deep anesthesia) time” value (spotted seabass [1]; 100 mg/L in water) of the same compound?
**A.** 213.00 ± 1.73 s

**Q.** And the Resuscitation time (spotted seabass [1]; [7])?
**A.** 344.00 s

**Q.** And the “Stage IV (deep anesthesia) time” value (spotted seabass [1]; [7])?
**A.** 155.33 s

**Q.** What about the Resuscitation time (spotted seabass [1]; 150 mg/L in water) of the same compound?
**A.** 270.00 ± 3.00 s

**Q.** What about the “Stage I (light sedation) time” value (spotted seabass [1]; 150 mg/L in water) of the same compound?
**A.** 22.33 ± 2.52 s

**Q.** What about the “Stage II (deep sedation) time” value (spotted seabass [1]; 150 mg/L in water) of the same compound?
**A.** 44.00 ± 2.65 s

**Q.** And the “Stage III (light anesthesia) time” value (spotted seabass [1]; 150 mg/L in water)?
**A.** 91.67 ± 1.53 s

**Q.** And the “Stage IV (deep anesthesia) time” value (spotted seabass [1]; 150 mg/L in water)?
**A.** 155.33 ± 3.51 s

**Q.** What about the Resuscitation time (spotted seabass [1]; 200 mg/L in water) of the same compound?
**A.** 310.00 ± 3.00 s

**Q.** What about the “Stage I (light sedation) time” value (spotted seabass [1]; 200 mg/L in water) of the same compound?
**A.** 16.00 ± 1.00 s

**Q.** And the “Stage II (deep sedation) time” value (spotted seabass [1]; 200 mg/L in water)?
**A.** 37.00 ± 1.73 s

**Q.** What about the “Stage III (light anesthesia) time” value (spotted seabass [1]; 200 mg/L in water) of the same compound?
**A.** 86.00 ± 2.65 s

**Q.** What about the “Stage IV (deep anesthesia) time” value (spotted seabass [1]; 200 mg/L in water) of the same compound?
**A.** 141.00 ± 5.29 s

**Q.** What about the Optimal anesthetic concentration (spotted seabass [1]; criterion: induction in around 3 min and recovery within 5 min) of the same compound?
**A.** 100 mg/L

**Q.** And the “Concentration showing deep sedation” value (spotted seabass [1]; in vivo)?
**A.** 20 mg/L

**Q.** And the “Concentration showing light anesthesia effect (Stage III)” value (spotted seabass [1]; in vivo)?
**A.** 30 mg/L

**Q.** And the “Concentration showing light sedation effect (Stage I)” value (spotted seabass [1]; in vivo)?
**A.** 10 mg/L

**Q.** And the “Minimum concentration required to achieve profound anesthesia (Stage IV)” value (spotted seabass [1]; in vivo, iv)?
**A.** 50 mg/L

**Q.** What about the Glucose concentration (spotted seabass [2]; [8]) of the same compound?
**A.** higher

**Q.** What about the Lactic acid concentration (spotted seabass [2]; [8]) of the same compound?
**A.** lower

**Q.** What about the Glucose concentration (spotted seabass [2]; after anesthesia, comparison between anesthetic groups) of the same compound?
**A.** Greater

**Q.** What about the Lactic acid level (spotted seabass [2]; after anesthesia, vs MS-222 and Cinnamomum camphora essential oil) of the same compound?
**A.** greater

**Q.** What about the Percentage of hematocrit (spotted seabass [3]) of the same compound?
**A.** lower

**Q.** And the IgM concentration (spotted seabass [4]; after anesthesia)?
**A.** decreased

**Q.** What about the LZM activity (spotted seabass [4]; after anesthesia, change from initial) of the same compound?
**A.** increased

**Q.** What about the LZM activity (spotted seabass [4]; after anesthesia, comparison between anesthetic groups, P<0.05) of the same compound?
**A.** higher

**Q.** And the ACP activity (spotted seabass [4]; after anesthesia, vs MS-222 and Cinnamomum camphora essential oil, P<0.05)?
**A.** higher

**Q.** What about the AKP activity (spotted seabass [4]; on exposure to anesthetic) of the same compound?
**A.** increased

**Q.** And the GSH-Px activity (spotted seabass [5]; [9])?
**A.** still higher than the initial levels

**Q.** What about the SOD activity (spotted seabass [5]; [9]) of the same compound?
**A.** still higher than the initial levels

**Q.** And the “SOD, CAT and GSH-Px activities” value (spotted seabass [5]; after anesthesia)?
**A.** increasing trend

**Q.** What about the “Gill tissue histopathological changes” value [6] of the same compound?
**A.** swollen lamellar epithelium
